Assay: Dissolution and solvation thermodynamic functions (van't Hoff; solubility minus sublimation)
Type: physicochemical
Protocol: The dissolution thermodynamic parameters on the standard state were determined using mole fraction unitary units. […] Since the resulting solutions are very dilute, and their densities are very close to those of the pure solvents. The density values of the pure solvents were used in calculations (Table S1). […] The temperature dependences of the experimental solubility were treated mathematically by the van't Hoff equation, and the apparent solution enthalpies ΔHsol0 were determined as follows:(3) ∂(lnX2)/∂T=ΔHsol0/RT^2 […] Next, the apparent solution entropies ΔSsol0 were derived by the equation:(5) ΔGsol0=ΔHso[…] The solvation of one mole of the solute molecules in the solvent can be defined as the total change of the standard thermodynamic functions ( ΔGsolv0 , ΔHsolv0 , ΔSsolv0 ) of the compound upon transferring it from the gaseous phase (ideal gas; single molecules without interaction) into the solvent. The transfer process can be presented as the difference between the dissolution and sublimation thermodynamic functions by:(6) ΔYsolv0=ΔYso[…] where ΔY^0 is the standard change of any of the thermodynamic functions (ΔG^0, ΔH^0, ΔS^0) of solvation ( ΔYsolv0 ), dissolution ( ΔYsol0 ) or sublimation ( ΔYsubo ).

[1] = Table S6, 1-octanol, all studied temperatures
[2] = Table S6, ethanol, all studied temperatures
[3] = Table S6, n-hexane, all studied temperatures
[4] = Table S6, water, all studied temperatures

CC(O)(CS(=O)(=O)c1ccc(F)cc1)C(=O)Nc1ccc(C#N)c(C(F)(F)F)c1 (centres unmarked) [BCL, bicalutamide]
TΔSsol0 (1-octanol, 298.15 K): 0.263 kcal/mol | ΔGsol0 (1-octanol, 298.15 K): 4.9 kcal/mol | ΔHsol0 (1-octanol, 298.15 K): 5.16 ± 0.096 kcal/mol | ΔSsol0 (1-octanol, 298.15 K): 3.7 ± 3.6 J∙mol^−1·K^−1 | ζHsolv (1-octanol, 298.15 K): 63.3% | ζTSsolv (1-octanol, 298.15 K): 36.7% | −TΔSsolv0 (1-octanol, 298.15 K): 14.3 kcal/mol | −ΔGsolv0 (1-octanol, 298.15 K): 10.3 kcal/mol | −ΔHsolv0 (1-octanol, 298.15 K): 24.64 kcal/mol | −ΔSsolv0 (1-octanol, 298.15 K): 200.9 J∙mol^−1·K^−1 | TΔSsol0 (Table S6, 1-octanol, 293.15 K): 0.265 kcal/mol | ΔGsol0 (Table S6, 1-octanol, 293.15 K): 4.897 kcal/mol | ΔSsol0 (Table S6, 1-octanol, 293.15 K): 3.79 J∙mol-1·K-1 | ζTSsolv (Table S6, 1-octanol, 293.15 K): 36.74% | −TΔSsolv0 (Table S6, 1-octanol, 293.15 K): 14.31 kcal/mol | −ΔGsolv0 (Table S6, 1-octanol, 293.15 K): 10.33 kcal/mol | TΔSsol0 (Table S6, 1-octanol, 298.15 K): 0.265 kcal/mol | ΔGsol0 (Table S6, 1-octanol, 298.15 K): 4.897 kcal/mol | ΔSsol0 (Table S6, 1-octanol, 298.15 K): 3.73 J∙mol-1·K-1 | ζTSsolv (Table S6, 1-octanol, 298.15 K): 36.74% | −TΔSsolv0 (Table S6, 1-octanol, 298.15 K): 14.31 kcal/mol | −ΔGsolv0 (Table S6, 1-octanol, 298.15 K): 10.33 kcal/mol | −ΔSsolv0 (Table S6, 1-octanol, 298.15 K): 200.87 J∙mol-1·K-1 | TΔSsol0 (Table S6, 1-octanol, 303.15 K): 0.275 kcal/mol | ΔGsol0 (Table S6, 1-octanol, 303.15 K): 4.888 kcal/mol | ΔSsol0 (Table S6, 1-octanol, 303.15 K): 3.81 J∙mol-1·K-1 | ζHsolv (Table S6, 1-octanol, 303.15 K): 63.27% | ζTSsolv (Table S6, 1-octanol, 303.15 K): 36.73% | −TΔSsolv0 (Table S6, 1-octanol, 303.15 K): 14.3 kcal/mol | −ΔGsolv0 (Table S6, 1-octanol, 303.15 K): 10.34 kcal/mol | TΔSsol0 (Table S6, 1-octanol, 308.15 K): 0.272 kcal/mol | ΔGsol0 (Table S6, 1-octanol, 308.15 K): 4.89 kcal/mol | ΔSsol0 (Table S6, 1-octanol, 308.15 K): 3.70 J∙mol-1·K-1 | ζHsolv (Table S6, 1-octanol, 308.15 K): 63.27% | ζTSsolv (Table S6, 1-octanol, 308.15 K): 36.73% | −TΔSsolv0 (Table S6, 1-octanol, 308.15 K): 14.31 kcal/mol | −ΔGsolv0 (Table S6, 1-octanol, 308.15 K): 10.33 kcal/mol | TΔSsol0 (Table S6, 1-octanol, 313.15 K): 0.287 kcal/mol | ΔGsol0 (Table S6, 1-octanol, 313.15 K): 4.876 kcal/mol | ΔSsol0 (Table S6, 1-octanol, 313.15 K): 3.82 J∙mol-1·K-1 | ζHsolv (Table S6, 1-octanol, 313.15 K): 63.29% | −ΔSsolv0 (Table S6, 1-octanol, 313.15 K): 190.96 J∙mol-1·K-1 | ΔHsol0 [1]: 5.16 kcal/mol | −ΔHsolv0 [1]: 24.64 kcal/mol | TΔSsol0 (Table S6, ethanol, 293.15 K): 2.964 kcal/mol | ΔGsol0 (Table S6, ethanol, 293.15 K): 3.944 kcal/mol | ΔSsol0 (Table S6, ethanol, 293.15 K): 42.29 J∙mol-1·K-1 | ζHsolv (Table S6, ethanol, 293.15 K): 66.34% | TΔSsol0 (Table S6, ethanol, 298.15 K): 3.023 kcal/mol | ΔGsol0 (Table S6, ethanol, 298.15 K): 3.872 kcal/mol | ΔSsol0 (Table S6, ethanol, 298.15 K): 42.43 J∙mol-1·K-1 | ζTSsolv (Table S6, ethanol, 298.15 K): 33.54% | −ΔGsolv0 (Table S6, ethanol, 298.15 K): 11.34 kcal/mol | TΔSsol0 (Table S6, ethanol, 303.15 K): 3.081 kcal/mol | ΔGsol0 (Table S6, ethanol, 303.15 K): 3.826 kcal/mol | ΔSsol0 (Table S6, ethanol, 303.15 K): 42.52 J∙mol-1·K-1 | ζTSsolv (Table S6, ethanol, 303.15 K): 33.43% | −TΔSsolv0 (Table S6, ethanol, 303.15 K): 11.5 kcal/mol | −ΔGsolv0 (Table S6, ethanol, 303.15 K): 11.4 kcal/mol | −ΔSsolv0 (Table S6, ethanol, 303.15 K): 158.70 J∙mol-1·K-1 | TΔSsol0 (Table S6, ethanol, 308.15 K): 3.136 kcal/mol | ΔGsol0 (Table S6, ethanol, 308.15 K): 3.772 kcal/mol | ΔSsol0 (Table S6, ethanol, 308.15 K): 42.56 J∙mol-1·K-1 | ζTSsolv (Table S6, ethanol, 308.15 K): 33.32% | −TΔSsolv0 (Table S6, ethanol, 308.15 K): 11.44 kcal/mol | −ΔGsolv0 (Table S6, ethanol, 308.15 K): 11.45 kcal/mol | TΔSsol0 (Table S6, ethanol, 313.15 K): 3.162 kcal/mol | ΔGsol0 (Table S6, ethanol, 313.15 K): 3.745 kcal/mol | ΔSsol0 (Table S6, ethanol, 313.15 K): 42.24 J∙mol-1·K-1 | ζTSsolv (Table S6, ethanol, 313.15 K): 33.27% | −TΔSsolv0 (Table S6, ethanol, 313.15 K): 11.42 kcal/mol | −ΔGsolv0 (Table S6, ethanol, 313.15 K): 11.48 kcal/mol | ΔHsol0 [2]: 6.91 kcal/mol | −ΔHsolv0 [2]: 22.9 kcal/mol | TΔSsol0 (Table S6, n-hexane, 293.15 K): 3.537 kcal/mol | ΔGsol0 (Table S6, n-hexane, 293.15 K): 8.222 kcal/mol | ζTSsolv (Table S6, n-hexane, 293.15 K): 37.96% | TΔSsol0 (Table S6, n-hexane, 298.15 K): 3.59 kcal/mol | ΔGsol0 (Table S6, n-hexane, 298.15 K): 8.174 kcal/mol | ΔSsol0 (Table S6, n-hexane, 298.15 K): 50.70 J∙mol-1·K-1 | ζHsolv (Table S6, n-hexane, 298.15 K): 62.20% | −TΔSsolv0 (Table S6, n-hexane, 298.15 K): 10.97 kcal/mol | −ΔSsolv0 (Table S6, n-hexane, 298.15 K): 153.88 J∙mol-1·K-1 | TΔSsol0 (Table S6, n-hexane, 303.15 K): 3.681 kcal/mol | ΔGsol0 (Table S6, n-hexane, 303.15 K): 8.078 kcal/mol | ΔSsol0 (Table S6, n-hexane, 303.15 K): 50.81 J∙mol-1·K-1 | ζTSsolv (Table S6, n-hexane, 303.15 K): 37.65% | −ΔSsolv0 (Table S6, n-hexane, 303.15 K): 150.42 J∙mol-1·K-1 | TΔSsol0 (Table S6, n-hexane, 308.15 K): 3.738 kcal/mol | ΔGsol0 (Table S6, n-hexane, 308.15 K): 8.021 kcal/mol | ΔSsol0 (Table S6, n-hexane, 308.15 K): 50.75 J∙mol-1·K-1 | ζTSsolv (Table S6, n-hexane, 308.15 K): 37.53% | −TΔSsolv0 (Table S6, n-hexane, 308.15 K): 10.84 kcal/mol | −ΔGsolv0 (Table S6, n-hexane, 308.15 K): 7.204 kcal/mol | −ΔSsolv0 (Table S6, n-hexane, 308.15 K): 147.20 J∙mol-1·K-1 | TΔSsol0 (Table S6, n-hexane, 313.15 K): 3.793 kcal/mol | ΔGsol0 (Table S6, n-hexane, 313.15 K): 7.966 kcal/mol | ζTSsolv (Table S6, n-hexane, 313.15 K): 37.41% | −TΔSsolv0 (Table S6, n-hexane, 313.15 K): 10.79 kcal/mol | −ΔGsolv0 (Table S6, n-hexane, 313.15 K): 7.259 kcal/mol | TΔSsol0 (Table S6, n-hexane, 318.15 K): 3.841 kcal/mol | ΔGsol0 (Table S6, n-hexane, 318.15 K): 7.918 kcal/mol | ΔSsol0 (Table S6, n-hexane, 318.15 K): 50.50 J∙mol-1·K-1 | ζHsolv (Table S6, n-hexane, 318.15 K): 62.69% | −TΔSsolv0 (Table S6, n-hexane, 318.15 K): 10.74 kcal/mol | −ΔGsolv0 (Table S6, n-hexane, 318.15 K): 7.306 kcal/mol | −ΔSsolv0 (Table S6, n-hexane, 318.15 K): 141.22 J∙mol-1·K-1 | ΔHsol0 [3]: 11.8 kcal/mol | −ΔHsolv0 [3]: 18 kcal/mol | ζHsolv (Table S6, water, 293.15 K): 58.17% | ζHsolv (Table S6, water, 298.15 K): 58.17% | −ΔSsolv0 (Table S6, water, 298.15 K): 211.97 J∙mol-1·K-1 | ζHsolv (Table S6, water, 303.15 K): 58.17% | ζHsolv (Table S6, water, 308.15 K): 58.13% | −TΔSsolv0 (Table S6, water, 308.15 K): 15.13 kcal/mol | −ΔGsolv0 (Table S6, water, 308.15 K): 5.877 kcal/mol | −ΔSsolv0 (Table S6, water, 308.15 K): 205.45 J∙mol-1·K-1 | ζHsolv (Table S6, water, 313.15 K): 58.12% | −TΔSsolv0 (Table S6, water, 313.15 K): 15.14 kcal/mol | −ΔGsolv0 (Table S6, water, 313.15 K): 5.872 kcal/mol | ΔHsol0 [4]: 8.8 kcal/mol | −ΔHsolv0 [4]: 21 kcal/mol | TΔSsol0 (ethanol, 298.15 K): 3.04 kcal/mol | ΔGsol0 (ethanol, 298.15 K): 3.87 kcal/mol | ΔHsol0 (ethanol, 298.15 K): 6.91 ± 0.22 kcal/mol | ΔSsol0 (ethanol, 298.15 K): 42.6 ± 5.1 J∙mol^−1·K^−1 | ζHsolv (ethanol, 298.15 K): 66.5% | ζTSsolv (ethanol, 298.15 K): 33.5% | −TΔSsolv0 (ethanol, 298.15 K): 11.5 kcal/mol | −ΔGsolv0 (ethanol, 298.15 K): 11.4 kcal/mol | −ΔHsolv0 (ethanol, 298.15 K): 22.9 kcal/mol | −ΔSsolv0 (ethanol, 298.15 K): 162.0 J∙mol^−1·K^−1 | TΔSsol0 (n-hexane, 298.15 K): 3.59 kcal/mol | ΔGsol0 (n-hexane, 298.15 K): 8.17 kcal/mol | ΔHsol0 (n-hexane, 298.15 K): 11.8 ± 0.17 kcal/mol | ΔSsol0 (n-hexane, 298.15 K): 50.3 ± 3.4 J∙mol^−1·K^−1 | ζHsolv (n-hexane, 298.15 K): 62.1% | ζTSsolv (n-hexane, 298.15 K): 37.9% | −TΔSsolv0 (n-hexane, 298.15 K): 11 kcal/mol | −ΔGsolv0 (n-hexane, 298.15 K): 7.05 kcal/mol | −ΔHsolv0 (n-hexane, 298.15 K): 18 kcal/mol | −ΔSsolv0 (n-hexane, 298.15 K): 154.3 J∙mol^−1·K^−1 | TΔSsol0 (water, 298.15 K): -0.526 kcal/mol | ΔGsol0 (water, 298.15 K): 9.32 kcal/mol | ΔHsol0 (water, 298.15 K): 8.8 ± 0.14 kcal/mol | ΔSsol0 (water, 298.15 K): −7.4 ± 0.3 J∙mol^−1·K^−1 | ζHsolv (water, 298.15 K): 58.2% | ζTSsolv (water, 298.15 K): 41.8% | −TΔSsolv0 (water, 298.15 K): 15.1 kcal/mol | −ΔGsolv0 (water, 298.15 K): 5.9 kcal/mol | −ΔHsolv0 (water, 298.15 K): 21 kcal/mol | −ΔSsolv0 (water, 298.15 K): 212.0 J∙mol^−1·K^−1
